# Laboratory results as given in ChEMBL document CHEMBL3272271, “Folate antagonists. 13. 2,4-Diamino-6-](alpha,alpha,alpha-trifluoro-m-tolyl)thio]quinazoline and related 2,4-diamino-6-[(phenyl- and naphthyl)thio]quinazolines, a unique class of antimetabolites with extraordinary antimalarial and antibacterial effects” (J Med Chem, 1978).
# Calls of active or inactive are those of the source. The rule behind the calls is not given here.
# Key:
# Plasmodium gallinaceum [1] = test: Antimalarial activity against trophozoite-induced Plasmodium gallinaceum infected in white leghorn chicken assessed as disease cure from parasite infection at 100 mg/kg, sc administered 72 hrs after infection; format: functional, organism-based; set-up: dose 100 mg/kg
# Plasmodium berghei [2] = test: Antimalarial activity against Plasmodium berghei infected in mouse assessed as increase in mean survival days of host at 2.5 mg/kg, sc administered 72 hrs after infection relative to control; format: functional; settings: route subcutaneous
# Plasmodium gallinaceum [3] = test: Antimalarial activity against trophozoite-induced Plasmodium gallinaceum infected in white leghorn chicken assessed as increase in mean survival days of host at 100 mg/kg, sc administered 72 hrs after infection relative to control; format: functional; settings: route subcutaneous
# Plasmodium berghei [4] = test: Antimalarial activity against Plasmodium berghei infected in mouse assessed as increase in mean survival days of host at 10 mg/kg, sc administered 72 hrs after infection relative to control; format: functional; settings: route subcutaneous
# Plasmodium berghei [5] = test: Antimalarial activity against Plasmodium berghei infected in mouse assessed as increase in mean survival days of host at 20 mg/kg, sc administered 72 hrs after infection relative to control; format: functional; settings: route subcutaneous
# Plasmodium berghei [6] = test: Antimalarial activity against cycloguanil-resistant Plasmodium berghei assessed as drug resistance; format: functional, organism-based
# Plasmodium berghei [7] = test: Antimalarial activity against Plasmodium berghei infected in mouse assessed as disease cure from parasite infection at 10 mg/kg, sc administered 72 hrs after infection; format: functional, organism-based; set-up: dose 10 mg/kg
# Plasmodium berghei [8] = test: Antimalarial activity against Plasmodium berghei infected in mouse assessed as disease cure from parasite infection at 80 mg/kg, sc administered 72 hrs after infection; format: functional, organism-based; set-up: dose 80 mg/kg
# Plasmodium berghei [9] = test: Antimalarial activity against Plasmodium berghei infected in mouse assessed as disease cure from parasite infection at 160 mg/kg, sc administered 72 hrs after infection; format: functional, organism-based; set-up: dose 160 mg/kg
# Plasmodium berghei [10] = test: Antimalarial activity against Plasmodium berghei infected in mouse assessed as disease cure from parasite infection at 640 mg/kg, sc administered 72 hrs after infection; format: functional, organism-based; set-up: dose 640 mg/kg
# Plasmodium berghei [11] = test: Antimalarial activity against Plasmodium berghei infected in mouse assessed as disease cure from parasite infection at 40 mg/kg, sc administered 72 hrs after infection; format: functional, organism-based; set-up: dose 40 mg/kg
# Plasmodium berghei [12] = test: Antimalarial activity against Plasmodium berghei infected in mouse assessed as increase in mean survival days of host at 5 mg/kg, sc administered 72 hrs after infection relative to control; format: functional; settings: route subcutaneous
# Plasmodium berghei [13] = test: Antimalarial activity against Plasmodium berghei infected in mouse assessed as disease cure from parasite infection at 320 mg/kg, sc administered 72 hrs after infection; format: functional, organism-based; set-up: dose 320 mg/kg
# Plasmodium berghei [14] = test: Antimalarial activity against Plasmodium berghei infected in mouse assessed as disease cure from parasite infection at 20 mg/kg, sc administered 72 hrs after infection; format: functional, organism-based; set-up: dose 20 mg/kg
# Plasmodium berghei [15] = test: Antimalarial activity against chloroquine-resistant Plasmodium berghei assessed as drug resistance; format: functional, organism-based
# Plasmodium berghei [16] = test: Antimalarial activity against Plasmodium berghei infected in mouse assessed as increase in mean survival days of host at 1.25 mg/kg, sc administered 72 hrs after infection relative to control; format: functional; settings: route subcutaneous
# Shigella sonnei = test: Antibacterial activity against Shigella sonnei C-10 by gradient plate test; format: functional
# Staphylococcus aureus [17] = test: Antibacterial activity against Staphylococcus aureus UC-96 by gradient plate test; format: functional
# Plasmodium gallinaceum [18] = test: Antimalarial activity against sporozoite-induced Plasmodium gallinaceum infected in white leghorn chicken assessed as disease cure from parasite infection at 15 mg/kg, sc administered 72 hrs after infection; format: functional, organism-based; set-up: dose 15 mg/kg
# Plasmodium gallinaceum [19] = test: Antimalarial activity against trophozoite-induced Plasmodium gallinaceum infected in white leghorn chicken assessed as increase in mean survival days of host at 1.25 mg/kg, sc administered 72 hrs after infection relative to control; format: functional; settings: route subcutaneous
# Plasmodium falciparum [20] = test: Antimalarial activity against pyrimethamine-sensitive Plasmodium falciparum Vietnam Oak Knoll infected in Aotus trivirgatus owl monkey model assessed as cure from parasite infection at 0.6 mg/kg, po qd for 7 days relative to control; format: functional
# Plasmodium falciparum [21] = test: Antimalarial activity against chloroquine-susceptible, pyrimethamine-resistant Plasmodium falciparum Malayan Camp infected in Aotus trivirgatus owl monkey model assessed as cure from parasite infection at 0.39 to 5 mg/kg, po qd for 7 days relative to control; format: functional; settings: dose mg/kg 0.39-5
# Staphylococcus aureus [22] = test: Antibacterial activity against drug-resistant Staphylococcus aureus S18713 by gradient plate test; format: functional
# Plasmodium gallinaceum [23] = test: Antimalarial activity against sporozoite-induced Plasmodium gallinaceum infected in white leghorn chicken assessed as disease cure from parasite infection at 30 mg/kg, sc administered 72 hrs after infection; format: functional, organism-based; set-up: dose 30 mg/kg
# Escherichia coli = test: Antibacterial activity against Escherichia coli Vogel by gradient plate test; format: functional
# Plasmodium gallinaceum [24] = test: Antimalarial activity against sporozoite-induced Plasmodium gallinaceum infected in white leghorn chicken assessed as disease cure from parasite infection at 240 mg/kg, sc administered 72 hrs after infection; format: functional, organism-based; set-up: dose 240 mg/kg
# Enterococcus faecalis = test: Antibacterial activity against Streptococcus faecalis MGH-2 by gradient plate test; format: functional
# Plasmodium falciparum [25] = test: Antimalarial activity against chloroquine-susceptible, pyrimethamine-resistant Plasmodium falciparum Malayan Camp infected in Aotus trivirgatus owl monkey model assessed as cure from parasite infection at >2.5 mg/kg, po qd for 7 days relative to control; format: functional
# Pseudomonas aeruginosa = test: Antibacterial activity against Pseudomonas aeruginosa 28 by gradient plate test; format: functional
# Plasmodium gallinaceum [26] = test: Antimalarial activity against trophozoite-induced Plasmodium gallinaceum infected in white leghorn chicken assessed as disease cure from parasite infection at 20 mg/kg, sc administered 72 hrs after infection; format: functional, organism-based; set-up: dose 20 mg/kg
# Plasmodium gallinaceum [27] = test: Antimalarial activity against trophozoite-induced Plasmodium gallinaceum infected in white leghorn chicken assessed as disease cure from parasite infection at 10 mg/kg, sc administered 72 hrs after infection; format: functional, organism-based; set-up: dose 10 mg/kg
# Plasmodium gallinaceum [28] = test: Antimalarial activity against sporozoite-induced Plasmodium gallinaceum infected in white leghorn chicken assessed as disease cure from parasite infection at 60 mg/kg, sc administered 72 hrs after infection; format: functional, organism-based; set-up: dose 60 mg/kg
# Plasmodium falciparum [29] = test: Antimalarial activity against pyrimethamine-sensitive Plasmodium falciparum Vietnam Oak Knoll infected in Aotus trivirgatus owl monkey model assessed as cure from parasite infection at 0.098 to 1.56 mg/kg, po qd for 7 days relative to control; format: functional; settings: dose mg/kg 0.098-1.56
# Plasmodium gallinaceum [30] = test: Antimalarial activity against sporozoite-induced Plasmodium gallinaceum infected in white leghorn chicken assessed as disease cure from parasite infection at 120 mg/kg, sc administered 72 hrs after infection; format: functional, organism-based; set-up: dose 120 mg/kg
# Plasmodium gallinaceum [31] = test: Antimalarial activity against trophozoite-induced Plasmodium gallinaceum infected in white leghorn chicken assessed as increase in mean survival days of host at 5 mg/kg, sc administered 72 hrs after infection relative to control; format: functional; settings: route subcutaneous
# Plasmodium gallinaceum [32] = test: Antimalarial activity against trophozoite-induced Plasmodium gallinaceum infected in white leghorn chicken assessed as increase in mean survival days of host at 0.63 mg/kg, sc administered 72 hrs after infection relative to control; format: functional; settings: route subcutaneous
# Plasmodium gallinaceum [33] = test: Antimalarial activity against sporozoite-induced Plasmodium gallinaceum infected in white leghorn chicken assessed as disease cure from parasite infection at 480 mg/kg, sc administered 72 hrs after infection; format: functional, organism-based; set-up: dose 480 mg/kg
# Plasmodium gallinaceum [34] = test: Antimalarial activity against trophozoite-induced Plasmodium gallinaceum infected in white leghorn chicken assessed as increase in mean survival days of host at 2.5 mg/kg, sc administered 72 hrs after infection relative to control; format: functional; settings: route subcutaneous
# Plasmodium berghei [35] = test: Antimalarial activity against trophozoite-induced Plasmodium berghei infected in mouse assessed as daily dose required to suppression of 90% parasite infection administered with diet for 6 days; format: functional
# Plasmodium gallinaceum [36] = test: Antimalarial activity against sporozoite-induced Plasmodium gallinaceum infected in white leghorn chicken assessed as increase in mean survival days of host at 30 mg/kg, sc administered 72 hrs after infection relative to control; format: functional; settings: route subcutaneous
# Plasmodium gallinaceum [37] = test: Antimalarial activity against trophozoite-induced Plasmodium gallinaceum infected in white leghorn chicken assessed as increase in mean survival days of host at 320 mg/kg, sc administered 72 hrs after infection relative to control; format: functional; settings: route subcutaneous
# Plasmodium berghei [38] = test: Ratio of quinine hydrochloride SD90 to compound SD90 for trophozoite-induced Plasmodium berghei infected in mouse assessed as daily dose required to suppression of 90% parasite infection administered with diet for 6 days; format: functional
# Plasmodium gallinaceum [39] = test: Antimalarial activity against sporozoite-induced Plasmodium gallinaceum infected in white leghorn chicken assessed as disease cure from parasite infection at 80 mg/kg, sc administered 72 hrs after infection; format: functional, organism-based; set-up: dose 80 mg/kg
# Plasmodium gallinaceum [40] = test: Antimalarial activity against sporozoite-induced Plasmodium gallinaceum infected in white leghorn chicken assessed as disease cure from parasite infection at 320 mg/kg, sc administered 72 hrs after infection; format: functional, organism-based; set-up: dose 320 mg/kg
# Plasmodium gallinaceum [41] = test: Antimalarial activity against trophozoite-induced Plasmodium gallinaceum infected in white leghorn chicken assessed as disease cure from parasite infection at 160 mg/kg, sc administered 72 hrs after infection; format: functional, organism-based; set-up: dose 160 mg/kg
# Plasmodium gallinaceum [42] = test: Antimalarial activity against trophozoite-induced Plasmodium gallinaceum infected in white leghorn chicken assessed as increase in mean survival days of host at 80 mg/kg, sc administered 72 hrs after infection relative to control; format: functional; settings: route subcutaneous
# Plasmodium gallinaceum [43] = test: Antimalarial activity against trophozoite-induced Plasmodium gallinaceum infected in white leghorn chicken assessed as increase in mean survival days of host at 120 mg/kg, sc administered 72 hrs after infection relative to control; format: functional; settings: route subcutaneous
# Gallus gallus = test: Toxicity in sporozoite-induced Plasmodium gallinaceum infected white leghorn chicken assessed as mortality at 480 mg/kg, sc administered 72 hrs after infection measured up to 6 days; format: organism-based; set-up: dose 480 mg/kg, route subcutaneous; settings: in vivo
# Plasmodium gallinaceum [44] = test: Antimalarial activity against sporozoite-induced Plasmodium gallinaceum infected in white leghorn chicken assessed as increase in mean survival days of host at 15 mg/kg, sc administered 72 hrs after infection relative to control; format: functional; settings: route subcutaneous
# Plasmodium gallinaceum [45] = test: Antimalarial activity against trophozoite-induced Plasmodium gallinaceum infected in white leghorn chicken assessed as disease cure from parasite infection at 80 mg/kg, sc administered 72 hrs after infection; format: functional, organism-based; set-up: dose 80 mg/kg
# Plasmodium gallinaceum [46] = test: Antimalarial activity against trophozoite-induced Plasmodium gallinaceum infected in white leghorn chicken assessed as disease cure from parasite infection at 320 mg/kg, sc administered 72 hrs after infection; format: functional, organism-based; set-up: dose 320 mg/kg
# Plasmodium gallinaceum [47] = test: Antimalarial activity against sporozoite-induced Plasmodium gallinaceum infected in white leghorn chicken assessed as disease cure from parasite infection at 160 mg/kg, sc administered 72 hrs after infection; format: functional, organism-based; set-up: dose 160 mg/kg
Compound,MST (Plasmodium berghei [2]),MST (Plasmodium berghei [4]),MST (Plasmodium berghei [5]),Activity (Plasmodium berghei [6]),Activity (Plasmodium berghei [8]),Activity (Plasmodium berghei [9]),Activity (Plasmodium berghei [10]),Activity (Plasmodium berghei [11]),MST (Plasmodium berghei [12]),Activity (Plasmodium berghei [13]),Activity (Plasmodium berghei [14]),Activity (Plasmodium berghei [15]),MST (Plasmodium berghei [16]),Activity (Plasmodium gallinaceum [18]),Activity (Plasmodium gallinaceum [23]),Activity (Plasmodium gallinaceum [24]),Activity (Plasmodium gallinaceum [28]),Activity (Plasmodium gallinaceum [30]),Activity (Plasmodium gallinaceum [33]),further results
Nc1nc(N)c2cc(Sc3ccc(Cl)c(Cl)c3)ccc2n1,5.9 days,11.7 days,15.9 days,Active,Active,Active,Active,Active,8.5 days,Active,Active,inactive,0.9 days,,,,,,,Activity (Plasmodium gallinaceum [1]): Active; MST (Plasmodium gallinaceum [3]): 20.8 days; Activity (Plasmodium berghei [7]): Active
CN(C)c1ccc(Sc2ccc3nc(N)nc(N)c3c2)cc1,5.5 days,10.3 days,,Active,Active,Active,Active,Active,9.7 days,Active,Active,inactive,2.5 days,Active,Active,Active,Active,Active,Active,MIC (Shigella sonnei): 10 µg/mL; MIC (Staphylococcus aureus [17]): < 0.25 µg/mL; MST (Plasmodium gallinaceum [19]): 10.4 days; Activity (Plasmodium falciparum [20]): >50%; Activity (Plasmodium falciparum [21]): >50%; MIC (Staphylococcus aureus [22]): < 0.25 µg/mL; MIC (Escherichia coli): 1.5 µg/mL; MIC (Enterococcus faecalis): < 0.25 µg/mL; Activity (Plasmodium falciparum [25]): >50%; MIC (Pseudomonas aeruginosa): > 25 µg/mL; Activity (Plasmodium gallinaceum [26]): Active; Activity (Plasmodium gallinaceum [27]): Active; Activity (Plasmodium falciparum [29]): >50%; MST (Plasmodium gallinaceum [31]): 19.8 days; MST (Plasmodium gallinaceum [32]): 6.6 days; MST (Plasmodium gallinaceum [34]): 12.6 days
CC(=O)O.Nc1nc(N)c2cc(N(Cc3ccc(Cl)c(Cl)c3)N=O)ccc2n1,,,22.4 days,,Active,Active,,,,Active,Active,,,Active,Active,Active,Active,Active,Active,SD90 (Plasmodium berghei [35]): 0.27 mg/kg/day; MST (Plasmodium gallinaceum [36]): 0 days; MST (Plasmodium gallinaceum [37]): 16.9 days; Ratio (Plasmodium berghei [38]): 270; Activity (Plasmodium gallinaceum [39]): Active; Activity (Plasmodium gallinaceum [40]): Active; Activity (Plasmodium gallinaceum [41]): Active; MST (Plasmodium gallinaceum [42]): 16.9 days; MST (Plasmodium gallinaceum [43]): 16.9 days; Activity (Gallus gallus): Toxic; MST (Plasmodium gallinaceum [44]): 0 days; Activity (Plasmodium gallinaceum [45]): Active; Activity (Plasmodium gallinaceum [46]): Active; Activity (Plasmodium gallinaceum [47]): Active
